We go through three molecules from DBAASP.

Each structure is given as a SMILES string. Converted amounts (≈) assume the structure as drawn.

Among the test systems are Escherichia coli MH1; Enterococcus faecium; Escherichia coli; Pseudomonas aeruginosa; Staphylococcus aureus.
Assay in all cases: ≥ marks a high value that may be exact or a test limit, other limits are often not marked, values filed in µg/mL are converted to µM
In test [1] the test system is Acinetobacter sp. DSM 586.
Test [2] has as its system Arthrobacter globiformis VKM Ac-1112.
Test [3] relates to Bacillus subtilis VKM B-501.
The subject of test [4] is Bacillus subtilis subsp. spizizenii DSM 347.
Test [5] deals with Escherichia coli DH5alpha.
Test [6] deals with Escherichia coli DSM 1116.
Test [7] deals with Pseudomonas aeruginosa PAO1.
Test [8] relates to Saccharomyces cerevisiae Y190.
Test [9] has as its system Staphylococcus xylosus DSM 20267.
Test [10] has as its system Aspergillus flavus KCTC 1375.
For test [11], the system named is Candida albicans ATCC 90028.
In test [12] the test system is Enterococcus faecium ATCC 19434.
Test [13] deals with Escherichia coli O157:H7 ATCC 43895.
The test system of test [14] is Malassezia furfur KCTC 7744.
Test [15] relates to Pseudomonas aeruginosa ATCC 27853.
Test [16] relates to Staphylococcus aureus ATCC 25923.
In test [17] the test system is Bacillus subtilis ATCC 62037.
For test [18], the system named is Candida albicans ATCC 10231.
For test [19], the system named is Cryptococcus neoformans ATCC 34881.
In test [20] the test system is Escherichia coli ATCC 27325.
Test [21] deals with Pseudomonas putida ATCC 17426.
For test [22], the system named is Saccharomyces cerevisiae ATCC 44774.
Test [23] concerns Salmonella enterica subsp. enterica serovar Enteritidis ATCC 13076.
The subject of test [24] is Staphylococcus aureus ATCC 15752.
Test [25] relates to Streptococcus mutans ATCC 25175.

The MIC is the lowest concentration that inhibits growth of the organism. Low values mean greater potency, high ones weaker potency. On to `CC[C@H](C)[C@H](NC(=O)[C@H](Cc1ccc(O)cc1)NC(=O)[C@H](CCC(N)=O)NC(=O)[C@H](CCCCN)NC(=O)[C@H](CC(C)C)NC(=O)[C@H](CCCCN)NC(=O)[C@H](CCC(=O)O)NC(=O)CNC(=O)[C@H](CCSC)NC(=O)[C@H](CO)NC(=O)[C@H](CCCCN)NC(=O)[C@H](Cc1ccccc1)NC(=O)[C@H](CCCCN)NC(=O)[C@H](CC(=O)O)NC(=O)[C@H](CCCCN)NC(=O)[C@H](CC(C)C)NC(=O)CN)C(=O)N[C@@H](CCC(N)=O)C(=O)N[C@H](C(=O)N[C@@H](Cc1c[nH]c2ccccc12)C(=O)N[C@@H](CCCCN)C(=O)N[C@@H](C)C(=O)N[C@@H](CCCCN)C(=O)N[C@@H](Cc1ccccc1)C(N)=O)[C@@H](C)O` [GLKDKFKSMGEKLKQYIQTWKAKF], for which the MIC in test [1] worked out at 2.76 µM (≈ 8 µg/mL); in test [2], 0.3 µM (≈ 0.871 µg/mL); in test [3], 1.1 µM (≈ 3.19 µg/mL); in test [4], 2.76 µM (≈ 8 µg/mL); in test [5], 4.5 µM (≈ 13.1 µg/mL); in test [6], 11 µM (≈ 32 µg/mL). For the same molecule, the MIC was 3.2 µM (≈ 9.29 µg/mL) against Escherichia coli MH1, over 35 µM in test [7], 18 µM (≈ 52.2 µg/mL) in test [8] and 1.38 µM (≈ 4 µg/mL) in test [9].

In the case of `CC(C)C[C@H](NC(=O)[C@H](C)NC(=O)[C@H](C)NC(=O)[C@H](CCCCN)NC(=O)CNC(=O)[C@@H](NC(=O)[C@H](Cc1cnc[nH]1)NC(=O)[C@H](CCCCN)NC(=O)CNC(=O)[C@@H](NC(=O)[C@H](Cc1cnc[nH]1)NC(=O)[C@H](C)NC(=O)[C@H](C)NC(=O)[C@H](CCCCN)NC(=O)[C@H](CCCCN)NC(=O)[C@H](Cc1ccccc1)NC(=O)[C@H](Cc1ccccc1)NC(=O)[C@H](CO)NC(=O)CNC(=O)[C@H](Cc1c[nH]c2ccccc12)NC(=O)CN)C(C)C)C(C)C)C(=O)N[C@H](C(N)=O)[C@@H](C)O` [GWGSFFKKAAHVGKHVGKAALT], the MIC in test [10] was determined as 10 µM (≈ 23 µg/mL); in [11] it was 10 µM (≈ 23 µg/mL); in test [12], 10 µM (≈ 23 µg/mL); with Enterococcus faecium it was 7.07 µM (≈ 16.2 µg/mL); in test [13] it was 7.07 µM (≈ 16.2 µg/mL); against Escherichia coli, 7.07 µM (≈ 16.2 µg/mL). Besides, the MIC in test [14] was 10 µM (≈ 23 µg/mL); in test [15], 7.07 µM (≈ 16.2 µg/mL); in the test on Pseudomonas aeruginosa, 10 µM (≈ 23 µg/mL); in [16] it was 10 µM (≈ 23 µg/mL); against Staphylococcus aureus, 7.07 µM (≈ 16.2 µg/mL).

Turning to `CC[C@H](C)[C@H](NC(=O)[C@@H]1CCCN1C(=O)[C@H](Cc1c[nH]c2ccccc12)NC(=O)[C@H](CCC(N)=O)NC(=O)[C@H](CCCN=C(N)N)NC(=O)[C@@H](NC(=O)[C@@H](NC(=O)[C@@H](N)CCCN=C(N)N)C(C)C)C(C)C)C(=O)NCC(=O)N[C@@H](CCCN=C(N)N)C(=O)N[C@H](C(=O)N[C@H](C(=O)N[C@@H](CCCN=C(N)N)C(=O)N[C@@H](CCCN=C(N)N)C(=O)N[C@H](C(=O)N[C@H](C(=O)N[C@@H](CCCN=C(N)N)C(=O)N[C@@H](CCCN=C(N)N)C(=O)N[C@H](C(=O)N[C@H](C(=O)N[C@@H](CCCN=C(N)N)C(=O)O)C(C)C)C(C)C)C(C)C)C(C)C)C(C)C)C(C)C` [RVVRQWPIGRVVRRVVRRVVR], the MIC in [17] came to 0.535 µM (≈ 1.41 µg/mL); in [18], 0.379 µM (≈ 1 µg/mL); in [19], 0.379 µM (≈ 1 µg/mL); in test [20], 0.268 µM (≈ 0.707 µg/mL); in test [21], 0.379 µM (≈ 1 µg/mL); in test [22], 0.268 µM (≈ 0.707 µg/mL). For the same molecule, the MIC in test [23], in [24] and in [25] was 0.535 µM (≈ 1.41 µg/mL) each time.
